Data reported in PubChem BioAssay AID330 (DTP/NCI, 2004).
Where “and” joins values, the source holds several entries; their conditions need not be identical. Equal values may be shown once. Toxic doses and inconclusive results are not listed.

Test system: P388 leukemia ip, CD2F1 mice, survival T/C
Assay: NCI In Vivo Anticancer Drug Screen. Data for tumor model P388 Leukemia (intraperitoneal) in CD2F1 (CDF1) mice
Conditions: endpoint: median survival time, higher = longer survival
Method in brief: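 Mice carrying the transplanted tumor received test compound or vehicle. Survival was recorded in each group, and the value is the treated-group measurement divided by that of the vehicle-treated control group.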

[1] = dose: 60.0 mg/kg/injection, schedule: Q01DX005 (ip), vehicle: saline with Tween-80
[2] = dose: 120.0 mg/kg/injection, schedule: Q01DX005 (ip), vehicle: saline with Tween-80
[3] = dose: 240.0 mg/kg/injection, schedule: Q01DX005 (ip), vehicle: saline with Tween-80
[4] = dose: 50.0 mg/kg/injection, schedule: Q01DX009 (ip), vehicle: Klucel (hydroxypropylcellulose) (HPC)
[5] = dose: 100.0 mg/kg/injection, schedule: Q01DX009 (ip), vehicle: Klucel (hydroxypropylcellulose) (HPC)
[6] = dose: 200.0 mg/kg/injection, schedule: Q01DX009 (ip), vehicle: Klucel (hydroxypropylcellulose) (HPC)
[7] = dose: 400.0 mg/kg/injection, schedule: Q01DX009 (ip), vehicle: Klucel (hydroxypropylcellulose) (HPC)

O=P(c1ccccc1)(c1ccccc1)c1ccccc1OCc1cccc(COc2ccccc2P(=O)(c2ccccc2)c2ccccc2)n1
T/C (dose: 50.0 mg/kg/injection, schedule: Q01DX005 (ip), vehicle: Klucel (hydroxypropylcellulose) (HPC)): 99 % of control
T/C (dose: 100.0 mg/kg/injection, schedule: Q01DX005 (ip), vehicle: Klucel (hydroxypropylcellulose) (HPC)): 91 % of control
T/C (dose: 200.0 mg/kg/injection, schedule: Q01DX005 (ip), vehicle: Klucel (hydroxypropylcellulose) (HPC)): 97 % of control

COc1ccc(C(OC(C)(C)C)c2cc(C(C)(C)C)cc(C(C)(C)C)c2O)cc1 (stereo unspecified)
T/C (dose: 50.0 mg/kg/injection, schedule: Q01DX005 (ip), vehicle: distilled water + alcohol): 101 % of control
T/C (dose: 100.0 mg/kg/injection, schedule: Q01DX005 (ip), vehicle: distilled water + alcohol): 104 % of control
T/C (dose: 200.0 mg/kg/injection, schedule: Q01DX005 (ip), vehicle: distilled water + alcohol): 97 % of control

O=C1OCC=C1Sc1ccccc1
T/C [1]: 106 % of control
T/C [2]: 108 % of control

CCN(CC)C(=O)Oc1cc(C(=O)N(CC)CC)c(OC(=O)N(CC)CC)cc1C(=O)N(CC)CC
T/C [1]: 101 % of control
T/C [2]: 92 % of control
T/C [3]: 89 % of control

N#CSCCSC#N
T/C (dose: 6.25 mg/kg/injection, schedule: Q04DX002 (ip), vehicle: Klucel (hydroxypropylcellulose) (HPC)): 100 % of control
T/C (dose: 12.5 mg/kg/injection, schedule: Q04DX002 (ip), vehicle: Klucel (hydroxypropylcellulose) (HPC)): 97 % of control

c1ccc(-c2nnc(-c3ccccn3)nn2)nc1
T/C (dose: 25.0 mg/kg/injection, schedule: Q01DX009 (ip), vehicle: Klucel (hydroxypropylcellulose) (HPC)): 100 % of control
T/C [4]: 99 % of control
T/C [5]: 100 % of control
T/C [6]: 108 % of control
T/C [7]: 96 % of control

Cc1ccc(C)n1N1CCOCC1
T/C [1]: 108 % of control
T/C [2]: 101 % of control
T/C [3]: 100 % of control

CN=C(NC)c1ccc(NC(=O)c2ccc(C(=O)Nc3ccc(C(=NC)NC)cc3)c(Cl)c2)cc1
T/C (dose: 18.0 mg/kg/injection, schedule: Q01DX010 (ip), vehicle: saline): 218 % of control
T/C (dose: 27.0 mg/kg/injection, schedule: Q01DX010 (ip), vehicle: saline): 254 % of control
T/C (dose: 40.0 mg/kg/injection, schedule: Q01DX010 (ip), vehicle: saline): 209 % of control
T/C (dose: 60.0 mg/kg/injection, schedule: Q01DX010 (ip), vehicle: saline): 154 % of control

CCCCCCCCCCCCCCCC(=O)N(C(C)CCCN(CC)CC)C(C)CCCN(CC)CC (stereo unspecified)
T/C (dose: 1.56 mg/kg/injection, schedule: Q01DX009 (ip), vehicle: water): 98 % of control
T/C (dose: 3.13 mg/kg/injection, schedule: Q01DX009 (ip), vehicle: water): 100 % of control
T/C (dose: 6.25 mg/kg/injection, schedule: Q01DX009 (ip), vehicle: water): 99 % of control
T/C (dose: 12.5 mg/kg/injection, schedule: Q01DX009 (ip), vehicle: water): 92 % of control

Cc1cc(N=Cc2cccs2)ccc1Br
T/C [4]: 101 % of control and 98 % of control
T/C [5]: 100 % of control and 101 % of control and 102 % of control
T/C [6]: 102 % of control and 95 % of control
T/C [7]: 105 % of control

COC1=C(OC)C(=O)C2=C(OCCCO2)C1=O
T/C (dose: 60.0 mg/kg/injection, schedule: Q01DX001 (ip), vehicle: saline with Tween-80): 105 % of control
T/C (dose: 200.0 mg/kg/injection, schedule: Q01DX001 (ip), vehicle: saline with Tween-80): 105 % of control
T/C (dose: 400.0 mg/kg/injection, schedule: Q01DX001 (ip), vehicle: saline with Tween-80): 101 % of control

Cc1cccc(/N=C/c2ccccc2O)n1
T/C [4]: 91 % of control
T/C [5]: 86 % of control

C[C@H](N)C(=O)/C=C/c1ccccc1
T/C (dose: 10.0 mg/kg/injection, schedule: Q01DX005 (ip), vehicle: saline): 101 % of control
T/C (dose: 20.0 mg/kg/injection, schedule: Q01DX005 (ip), vehicle: saline): 100 % of control
T/C (dose: 40.0 mg/kg/injection, schedule: Q01DX005 (ip), vehicle: saline): 98 % of control
